Assay results taken from patent publication US20140297199A1, “DRUG SCREENING METHOD AND USES THEREOF” (COLD SPRING HARBOR LABORATORY, priority 2011, published 2014).
“Also recorded” adds a separate entry of the source.

How the values were obtained:
[1] = tested on: c-fos-GFP expression in the transgenic c-fos-GFP mouse brain; test: c-fos-GFP induction in transgenic c-fos-GFP mouse brain, whole-mount two-photon microscopy (Example 3); type: in vivo; details: three hours, vs saline, one animal per treatment
Source text: High-throughput whole-brain imaging of an immediate early gene (IEG) induction was used in transgenic “indicator” mice that express GFP from specific IEG promoters, such as c-fos and Arc promoters in c-fos-GFP and Arc-GFP transgenic mice ((Barth et al., J Neurosci 24, 6466-6475 (2004); Grinevich et al., Journal of Neuroscience Methods 184, 25-36 (2009)). In these mice, GFP represents a readily detectable surrogate for the expression of the native gene.
Whole-mount two-photon microscopy was used for automated mouse brain imaging. The instrument works as follows: First, a fixed mouse brain embedded in an agar block is placed in a water bath on top of a computer controlled x-y-z stage. The stage moves the brain under the objective, so that the top is imaged as a mosaic of individual fields of view (“tiles”). […]
To validate the entire pipeline of data processing, the trained neural networks were applied to extract c-fos-GFP signal in brains of two mice, one injected with saline and the other with haloperidol at 1 mg/kg (FIG. 27). Three hours later, the mice were euthanized, their brains imaged by whole-mount two-photon microscopy, and c-fos-GFP-positive cells were computationally detected and visualized as a three-dimensional representation of intensity centroids (FIG. 17).

[2] = tested on: c-fos-GFP expression in the whole mouse brain; test: c-fos-GFP pharmacomap by STP tomography, haloperidol vs saline (Example 5); type: in vivo; details: 3 hours
Source text: This example analyzes the effects of antipsychotic drugs on neural circuit activity in the whole mouse brain. The method comprises the following steps: (1) an automated whole-brain microscopy, STP tomography, was used to image brains of c-fos-GFP mice, which express GFP as a marker for native c-fos; (2) the distribution of the activated c-fos-GFP-positive neurons was computationally detected by convolutional neural networks; (3) the processed datasets were warped and registered in a 3D reference brain and voxelized for statistical comparisons.
Transgenic c-fos-GFP mice (Reijmers et al., Science 317:1230-1233 (2007)), expressing GFP as a surrogate marker for native c-fos, was injected with intraperitoneally with haloperidol (1 mg/kg) or saline (control). The mice were returned to their home cage and left undisturbed for 3 hours, a time period needed for the induction and fluorophore maturation of c-fos-GFP. Next, the mice were deeply anesthetized and euthanized by intra-cardiac perfusion with saline and paraformaldehyde for brain fixation. The mice were decapitated and the brain was extracted, postfixed and embedded in agar for STP tomography. Three PMTs (C1-C3) can be used for multi-color imaging. […]

[3] = tested on: c-fos-GFP expression in the mouse brain; test: Haloperidol dose-response c-fos-GFP pharmacomaps (Example 10); type: in vivo
Source text: For example, before injection, male mice (8 weeks old) are single-housed for five days in order to limit the variability of the baseline c-fos-GFP expression.
For example, the datasets are represented as the number of centroids (c-fos-GFP cells) lying within an evenly spaced grid of 450×650×300 elements (voxels), each of size 20×20×50 microns.
Drugs have different effects and side effects at different dosages.

[4] = tested on: c-fos-GFP expression in the mouse brain; test: c-fos-GFP pharmacomaps of three antipsychotics at a moderate dosage (Example 9); details: 5 mouse brains per drug
[5] = haloperidol 0.25, risperidone 1.0, aripiprazole 1.0 mg/kg, vs saline-injected control

O=C(CCCN1CCC(O)(c2ccc(Cl)cc2)CC1)c1ccc(F)cc1 [haloperidol]
c-fos-GFP-positive cells per coronal section, caudal sections ([1]; 1 mg/kg, preliminary quantitation): increased numbers of c-fos-GFP-positive cells in many caudal coronal sections; also recorded: broad distribution of haloperidol-evoked c-fos-GFP induction in the caudal sections
brain regions with c-fos-GFP induction ([1]; i.p. 1 mg/kg): expected induction of c-fos-GFP in the striatum and lateral septum; also recorded: expected strong induction of c-fos-GFP in the caudate putamen; also recorded: Strong labeling is induced in striatum (A) and lateral septum (B)
previously identified brain regions detected as statistically different vs saline ([2]; 1 mg/kg i.p., n=7 vs saline n=7, negative binomial regressions, FDR 0.01): Medial prefrontal Cx, Cingulate Cx, Piriform Cx, Major Islands of Calleja, Nc Accumbens (whole, shell, core), Lateral septum, Striatum (whole), Medial preoptic area, Paraventricular nucleus, Bed nucleus of stria terminalis, Medial thalamus
number of c-fos-GFP cells in the brain (c-fos-GFP pharmacomap) ([2]; 1 mg/kg intraperitoneally, saline brain 176,771): 545,838 c-fos-GFP cells
brain regions activated (pharmacomap A) ([3]; 0.05 mg/kg (low)): activated dorsomedial hypothalamus (HYP), ACB, and CP
brain regions activated (pharmacomap B) ([3]; 0.25 mg/kg (medium)): activated the same structures as shown in pharmacomap A, plus OT, LS and PL
brain regions activated (pharmacomap C) ([3]; 1.0 mg/kg (high)): more widespread activation, including, in addition, prelimbic (PL), infralimbic (IL), and lateral entorhinal (ENT) areas, BST, central amygdala (CEA) and PVT
numbers of activated areas across dosages ([3]; 0.05, 0.25 and 1.0 mg/kg): increasing numbers of activated areas observed with increasing dosage
strength of c-Fos induction within commonly activated regions (caudate putamen and nucleus accumbens) ([3]; 0.05, 0.25 and 1.0 mg/kg, data not shown): significantly increased with increasing dosage
brain regions activated (pharmacomap) ([4]; haloperidol 0.25 mg/kg, risperidone 1.0 mg/kg, aripiprazole 1.0 mg/kg, vs saline): activated a major portion of the caudate putamen (CP) and nucleus accumbens (ACB), as well as the olfactory tubercle (OT), prelimbic cortex (PL), lateral septum (LS) and dorsomedial hypothalamus (HYP)
c-fos-GFP activation, Anterior cingulate cortex (ACAd) [4, 5]: up
c-fos-GFP activation, Anterior cingulate cortex (ACAv) [4, 5]: 0
c-fos-GFP activation, Basal, Central, Cortic. Amydgala (AMG) [4, 5]: 0
c-fos-GFP activation, Bed nucleus of Stria Terminalis (BST) [4, 5]: 0
c-fos-GFP activation, Caudate-putamen (CP, dorso-medial) [4, 5]: up
c-fos-GFP activation, Caudate-putamen (CP, ventro-medial) [4, 5]: up
c-fos-GFP activation, Caudoputamen (CP, dorsolateral) [4, 5]: up
c-fos-GFP activation, Caudoputamen (CP, ventrolateral) [4, 5]: up
c-fos-GFP activation, Central medial thalamic nucleus [4, 5]: 0
c-fos-GFP activation, Claustrum (CLA) [4, 5]: 0
c-fos-GFP activation, Dorsomedial hypoth. (HYP) [4, 5]: up
c-fos-GFP activation, Gostatory Cx (GU) [4, 5]: 0
c-fos-GFP activation, Hippocampus: CA1, CA2, CA3 (HF) [4, 5]: 0
c-fos-GFP activation, Hippocampus: DG [4, 5]: 0
c-fos-GFP activation, Hypothalamus, ventromedial nuclei [4, 5]: 0
c-fos-GFP activation, Infralimbic cortex (IL) [4, 5]: up
c-fos-GFP activation, Insular area, agranular [4, 5]: 0
c-fos-GFP activation, Lateral Septum (LS) [4, 5]: up
c-fos-GFP activation, Lateral Spetal Nucl, dorsal part [4, 5]: 0
c-fos-GFP activation, Midline Thalamus (Nucl Reuniens, RE) [4, 5]: 0
c-fos-GFP activation, Midline Thalamus (PVT) [4, 5]: 0
c-fos-GFP activation, Motor area, primary (MOp) [4, 5]: 0
c-fos-GFP activation, Motor area, secondary (MOs) [4, 5]: 0
c-fos-GFP activation, Nucleus Accumbens (ACB), core [4, 5]: up
c-fos-GFP activation, Nucleus Accumbens (ACB), shell [4, 5]: up
c-fos-GFP activation, Nucleus Accumbens (ACB), whole [4, 5]: up
c-fos-GFP activation, Olfactory tubercle (OT) [4, 5]: up
c-fos-GFP activation, Orbital cortex ventral (VO) [4, 5]: 0
c-fos-GFP activation, Orbital cx (ORB), lateral [4, 5]: 0
c-fos-GFP activation, Orbital cx (ORB), medial [4, 5]: up
c-fos-GFP activation, Piriform cx (PIR) [4, 5]: 0
c-fos-GFP activation, Prelimbic cx (PL) [4, 5]: up
c-fos-GFP activation, RSPd, v, d and agl [4, 5]: 0
c-fos-GFP activation, Red nucleus (RN) [4, 5]: 0
c-fos-GFP activation, Somatosensory cx, primary [4, 5]: 0
c-fos-GFP activation, Striatum, ventro-lateral [4, 5]: 0
c-fos-GFP activation, Superior Colliculus (SC) [4, 5]: 0
c-fos-GFP activation, Temporal cortex [4, 5]: 0
c-fos-GFP activation, Ventromedial Thalamus (caudally) [4, 5]: 0
c-fos-GFP activation, Zona Inserta [4, 5]: 0
